Results: US7326698B2, “Prostaglandin analogs” (Allergan, Inc., priority 2004, dated 2008)

Legend:
[1] = target: T1, hEP4/Gqs5 (Homo sapiens, UniProt P35408); assay: FLIPR calcium signal, HEK-293(EBNA) cells; assay type: cell-based; conditions: read-out: Functional Data (EC50 in nM) hEP4
T1 construct: expressed in transfected cells; host or cells: HEK-293(EBNA)
Experimental: (§1) Methods for FLIPR™ Studies
(§2) HEK-293(EBNA) cells, stably expressing one type or subtype of recombinant human prostaglandin receptors (prostaglandin receptors expressed: hDP/Gqs5; hEP1; hEP2/Gqs5; hEP3A/Gqi5; hEP4/Gqs5; hFP; hIP; hTP), are cultured in 100 mm culture dishes in high-glucose DMEM medium containing 10% fetal bovine serum, 2 mM 1-glutamine, 250 μg/ml geneticin (G418) and 200 μg/ml hygromycin B as selection markers, and 100 units/ml penicillin G, 100 μg/ml streptomycin and 0.25 μg/ml amphotericin B.
(§3) (b) Calcium Signal Studies On the FLIPR™
(§4) Cells are seeded at a density of 5×10^4 cells per well in Biocoat® Poly-D-lysine-coated black-wall, clear-bottom 96-well plates (Becton-Dickinson) and allowed to attach overnight in an incubator at 37° C. Cells are then washed two times with HBSS-HEPES buffer (Hanks Balanced Salt Solution without bicarbonate and phenol red, 20 mM HEPES, pH 7.4) using a Denley Cellwash plate washer (Labsystems). After 45 minutes of dye-loading in the dark, using the calcium-sensitive dye Fluo-4 AM at a final concentration of 2 μM, plates are washed four times with HBSS-HEPES buffer to remove excess dye leaving 100 μl in each well. Plates are re-equilibrated to 37° C. for a few minutes.
(§5) Cells are excited with an Argon laser at 488 nm, and emission is measured through a 510-570 nm bandwidth emission filter (FLIPR™, Molecular Devices, Sunnyvale, Calif.). Drug solution is added in a 50 μl volume to each well to give the desired final concentration. The peak increase in fluorescence intensity is recorded for each well. On each plate, four wells each serve as negative (HBSS-HEPES buffer) and positive controls (standard agonists: BW245C (hDP); PGE2 (hEP1; hEP2/Gqs5; hEP3A/Gqi5; hEP4/Gqs5); PGF2α, (hFP); carbacyclin (hIP); U-46619 (hTP), depending on receptor). The peak fluorescence change in each drug-containing well is then expressed relative to the controls.
(§6) Compounds are tested in a high-throughput (HTS) or concentration-response (CoRe) format. In the HTS format, forty-four compounds per plate are examined in duplicates at a concentration of 10^−5 M. To generate concentration-response curves, four compounds per plate are tested in duplicates in a concentration range between 10^−5 and 10^−11 M. The duplicate values are averaged. In either, HTS or CoRe format each compound is tested on at least 3 separate plates using cells from different passages to give an n≧3.

[2] = target: T2, hTP (Homo sapiens, UniProt P21731); assay: FLIPR calcium signal, HEK-293(EBNA) cells; assay type: cell-based; conditions: read-out: Functional Data (EC50 in nM) hTP
T2 construct: expressed in transfected cells; host or cells: HEK-293(EBNA)
T2 sequence (P21731 1-343): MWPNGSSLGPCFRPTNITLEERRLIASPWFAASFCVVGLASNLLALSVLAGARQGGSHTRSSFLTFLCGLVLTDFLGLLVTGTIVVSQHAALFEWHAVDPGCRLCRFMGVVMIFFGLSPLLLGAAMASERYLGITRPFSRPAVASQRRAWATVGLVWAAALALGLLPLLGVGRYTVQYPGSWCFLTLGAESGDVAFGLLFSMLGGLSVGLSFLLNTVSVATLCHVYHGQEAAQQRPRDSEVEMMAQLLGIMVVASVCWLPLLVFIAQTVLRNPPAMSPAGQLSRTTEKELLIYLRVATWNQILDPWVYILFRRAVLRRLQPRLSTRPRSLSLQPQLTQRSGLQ
Experimental: as §1, §2, §3, §4, §5, §6

[3] = target: T3, hEP4 (Homo sapiens, UniProt P35408); assay: Radioligand binding, HEK-293 cells stably expressing EP4 receptor; conditions: competition vs 5 nM [3H]-PGE2
T3 construct: expressed in transfected cells; host or cells: HEK-293 (membrane fraction)
T3 sequence (P35408 whole entry): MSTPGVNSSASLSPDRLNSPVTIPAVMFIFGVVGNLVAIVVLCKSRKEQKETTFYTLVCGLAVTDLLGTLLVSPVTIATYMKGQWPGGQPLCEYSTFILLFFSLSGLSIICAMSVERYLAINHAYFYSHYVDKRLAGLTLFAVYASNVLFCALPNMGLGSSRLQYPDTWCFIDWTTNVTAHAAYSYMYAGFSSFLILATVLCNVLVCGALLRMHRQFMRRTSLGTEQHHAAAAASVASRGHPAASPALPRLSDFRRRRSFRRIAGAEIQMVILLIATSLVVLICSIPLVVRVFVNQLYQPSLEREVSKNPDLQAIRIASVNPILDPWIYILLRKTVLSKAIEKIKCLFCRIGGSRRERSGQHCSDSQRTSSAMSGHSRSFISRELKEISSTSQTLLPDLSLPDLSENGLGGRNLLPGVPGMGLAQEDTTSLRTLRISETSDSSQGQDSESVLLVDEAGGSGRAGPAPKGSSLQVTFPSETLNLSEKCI
Experimental: Cells Stably Expressing EP1, EP2, EP4 and FP Receptors
HEK-293 cells stably expressing the human or feline FP receptor, or EP1, EP2, or EP4 receptors are washed with TME buffer, scraped from the bottom of the flasks, and homogenized for 30 sec using a Brinkman PT 10/35 polytron. TME buffer is added to achieve a final 40 ml volume in the centrifuge tubes (the composition of TME is 100 mM TRIS base, 20 mM MgCl2, […]; 10N HCl is added to achieve a pH of 7.4).
The cell homogenate is centrifuged at 19000 r.p.m. for 20 min at 4° C. using a Beckman Ti-60 rotor. The resultant pellet is resuspended in TME buffer to give a final 1 mg/ml protein concentration, as determined by Biorad assay. Radioligand binding competition assays vs. [^3H-]17-phenyl PGF2[…](5 nM) are performed in a 100 μl volume for 60 min. Binding reactions are started by adding plasma membrane fraction. The reaction is terminated by the addition of 4 ml ice-cold TRIS-HCl buffer and rapid filtration through glass fiber GF/B filters using a Brandel cell harvester. The filters are washed 3 times with ice-cold buffer and oven dried for one hour.
[^3H-] PGE2 (specific activity 180 Ci mmol) is used as the radioligand for EP receptors. [^3H] 17-phenyl PGF2[…]is employed for FP receptor binding studies. […] 17-phenyl PGF2[…]and non-specific binding determined with 10^−5M of unlabeled PGE2, or 17-phenyl PGF2[…], according to receptor subtype studied.

[4] = target: T4, hEP3A/Gqi5 (Homo sapiens, UniProt P43115); assay: FLIPR calcium signal, HEK-293(EBNA) cells; assay type: cell-based; conditions: read-out: Functional Data (EC50 in nM) hEP3A
T4 construct: expressed in transfected cells; host or cells: HEK-293(EBNA)
T4 sequence (P43115 1-390): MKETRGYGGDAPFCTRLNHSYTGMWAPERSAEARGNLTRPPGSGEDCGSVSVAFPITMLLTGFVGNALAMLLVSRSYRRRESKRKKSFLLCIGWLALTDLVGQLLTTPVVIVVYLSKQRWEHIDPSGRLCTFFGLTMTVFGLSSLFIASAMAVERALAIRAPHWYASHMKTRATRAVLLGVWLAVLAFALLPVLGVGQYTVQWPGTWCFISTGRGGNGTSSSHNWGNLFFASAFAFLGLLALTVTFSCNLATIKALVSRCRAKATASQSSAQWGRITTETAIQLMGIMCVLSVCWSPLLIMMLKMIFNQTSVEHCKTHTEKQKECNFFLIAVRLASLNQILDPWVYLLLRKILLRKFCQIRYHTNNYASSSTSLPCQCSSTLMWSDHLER
Experimental: as §1, §2, §3, §4, §5, §6

[5] = target: T5, hIP (Homo sapiens, UniProt P43119); assay: FLIPR calcium signal, HEK-293(EBNA) cells; assay type: cell-based; conditions: read-out: Functional Data (EC50 in nM) hIP
T5 construct: expressed in transfected cells; host or cells: HEK-293(EBNA)
T5 sequence (P43119 whole entry): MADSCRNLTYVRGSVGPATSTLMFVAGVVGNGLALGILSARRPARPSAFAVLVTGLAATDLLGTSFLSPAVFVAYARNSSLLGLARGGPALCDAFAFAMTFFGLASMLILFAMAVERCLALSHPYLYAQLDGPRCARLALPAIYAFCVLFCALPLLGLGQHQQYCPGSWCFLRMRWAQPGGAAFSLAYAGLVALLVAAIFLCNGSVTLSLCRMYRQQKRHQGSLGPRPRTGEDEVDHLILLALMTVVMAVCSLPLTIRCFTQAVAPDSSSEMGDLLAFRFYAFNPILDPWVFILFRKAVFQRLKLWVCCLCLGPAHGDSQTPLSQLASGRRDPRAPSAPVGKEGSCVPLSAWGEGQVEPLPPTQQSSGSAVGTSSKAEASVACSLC
Experimental: as §1, §2, §3, §4, §5, §6

T1 sequence (P35408 whole entry): as the sequence (P35408 whole entry) above

| Structure (SMILES) | EC50 [1] [nM] | also measured |
| --- | --- | --- |
| COC(=O)CCCC#CCN1C(=O)CCCCC1C=CC(O)Cc1ccccc1 (centres unmarked) | 3080 | – |
| O=C(O)CCCC#CCN1C(=O)CCCCC1C=CC(=O)Cc1ccccc1 (centres unmarked) | > 10000 | – |
| O=C(O)CCCCCCN1C(=O)CCCCC1C=CC(O)Cc1ccccc1 (centres unmarked) | > 10000 | – |
| COC(=O)CCC/C=C\CN1C(=O)CCCCC1CCC(O)Cc1ccccc1 (centres unmarked) | 2140 | – |
| O=C(O)CCC/C=C\CN1C(=O)CCCCC1C=CC(O)Cc1ccccc1 (centres unmarked) | 266 | EC50 [2]: 221 nM |
| COC(=O)CCCCCCN1C(=O)CCCCC1CCC(=O)Cc1ccccc1 (centres unmarked) | > 10000 | – |
| COC(=O)CCCCCCN1C(=O)CCCCC1C=CC(=O)Cc1ccccc1 (centres unmarked) | > 10000 | – |
| O=C(O)CCCC#CCN1C(=O)CCCCC1CCC(=O)Cc1ccccc1 (centres unmarked) | 2390 | EC50 [2]: 41 nM |
| O=C(O)CCC/C=C\CN1C(=O)CCCCC1CCC(O)Cc1ccccc1 (centres unmarked) | 116 | IC50 [3]: > 10000 nM |
| COC(=O)CCCCCCN1C(=O)CCCCC1C=CC(O)Cc1ccccc1 (centres unmarked) [drawing 36] | > 10000 | – |
| O=C(O)CCCC#CCN1C(=O)CCCCC1C=CC(O)Cc1ccccc1 (centres unmarked) | 1230 | EC50 [2]: 278 nM |
| O=C(O)CCCCCCN1C(=O)CCCCC1CCC(=O)Cc1ccccc1 (centres unmarked) | > 10000 | – |
| O=C(O)CCC/C=C\CN1C(=O)CCCCC1CCC(=O)Cc1ccccc1 (centres unmarked) | > 10000 | – |
| COC(=O)CCCC#CCN1C(=O)CCCCC1CCC(O)Cc1ccccc1 (centres unmarked) | > 10000 | – |
| COC(=O)CCC/C=C\CN1C(=O)CCCCC1C=CC(O)Cc1ccccc1 (centres unmarked) | > 10000 | – |
| COC(=O)CCCCCCN1C(=O)CCCCC1CCC(O)Cc1ccccc1 (centres unmarked) | 3280 | EC50 [4]: > 10000 nM |
| COC(=O)CCCC#CCN1C(=O)CCCCC1C=CC(=O)Cc1ccccc1 (centres unmarked) | > 10000 | – |
| COC(=O)CCCC#CCN1C(=O)CCCCC1CCC(=O)Cc1ccccc1 (centres unmarked) | > 10000 | – |
| O=C(O)CCCC#CCN1C(=O)CCCCC1CCC(O)Cc1ccccc1 (centres unmarked) | 2000 | EC50 [2]: 112 nM |
| COC(=O)CCCCCCN1C(=O)CCCCC1C=CC(O)Cc1ccccc1 (centres unmarked) [drawing 40] | > 10000 | – |
| O=C(O)CCCCCCN1C(=O)CCCCC1CCC(O)Cc1ccccc1 (centres unmarked) | 451 | EC50 [2]: 549 nM; EC50 [5]: 1640 nM |
| O=C(O)CCCCCCN1C(=O)CCCCC1C=CC(=O)Cc1ccccc1 (centres unmarked) | > 10000 | – |
| COC(=O)CCC/C=C\CN1C(=O)CCCCC1CCC(=O)Cc1ccccc1 (centres unmarked) | 13300 | IC50 [3]: > 10000 nM |
